For the test, the system named is trauma-induced caecal adhesion in rats. Briefly: trauma-induced caecal adhesion model in rats. Type of test: in vivo, rat. How it is done: Models of peritoneal adhesions induced by surgical trauma have been used to predict the clinical activity of a number of marketed anti-adhesion barrier devices. One such model is the trauma-induced caecal adhesion model in rats. A representative retinoid antagonist compound of the present invention, 4-{{(E)-(5,6-dihydro-5,5-dimethyl-8-phenyl)-2-naphthalenyl]vinyl]benzoic acid of the formula [drawing 49]
Adult female Wistar rats were used in our studies. The trauma induction was carried out using aseptic conditions in animals anesthetized with a mixture of Ketamine (100 mg/kg) and Rompun (10 mg/kg) given IP. A 2 cm midline abdominal incision was made and the caecum was exteriorized. Both sides of the caecum were abraded with a dry gauze until there was evidence of punctate bleeding. After replacing the organ in the abdominal cavity, the incision was closed. Trauma to the caecum produces fibrous scar tissue or adhesions to adjacent organs, peritoneal wall, or the omentum. Animals were treated with test compound orally or by intravenous injection or intra-abdominally by direct instillation into the peritoneal cavity. Oral treatments were administered once daily for up to 7 days. Intra-abdominal treatments were applied once post-trauma and just prior to wound closure.
On the seventh postoperative day, the animals were sacrificed and the peritoneal cavity was exposed and examined for adhesions. Three criteria that were used to evaluate the adhesions are: severity of the adhesions, extent or area of the ceacum involved with adhesions and the number of adhesions formed in each animal. Statistical analysis of the data was performed using students' T test. The following scoring system was used:
The test compound described above administered by the intra-abdominal route was compared to some other representative retinoid antagonists of the present invention. A single dose of compound in 3 ml volume was instilled over the traumatized caecum and abdominal cavity prior to closing the incision. Seven days later the animals were sacrificed and the abdominal cavity was examined for adhesions to the caecum.

Setting [1] is: administered orally for 7 days, 10 and 15 mg/kg, compared to the vehicle control (FIG. 1).

Regarding `CC1=C(/C=C/C(C)=C/C=C/C(C)=C/C(=O)O)C(C)(C)CCC1` [All-trans retinoic acid, all-trans retinoic acid, reference compound], where the note is “orally administered, at twice the dose of the test compound (Table 1)”, the “effect on trauma induced adhesions (number, severity and extent of caecal adhesions)” value is reported as “no significant effect”.
As for `CC1(C)CC=C(c2ccccc2)c2cc(/C=C/c3ccc(C(=O)O)cc3)ccc21` [compound A, 4-{{(E)-(5,6-dihydro-5,5-dimethyl-8-phenyl)-2-naphthalenyl]vinyl]benzoic acid], under setting [1], the “number of adhesions per animal” value was “significantly reduced” and the “severity of adhesions per animal” value is given as “significantly reduced”. The “severity of caecal adhesions” value (single intra-abdominal application at 5 mg in 3 ml, examined seven days later (Table 2)) is listed as “effectively reduced”. In addition, for the setting “single intra-abdominal application at 5 mg in 3 ml, examined seven days later, compared to the vehicle control (Table 2)”, the “number of adhesions formed” value is “significantly reduced”.

The values are drawn from patent US20010003780A1, “Retinoid antagonists and uses thereof” (priority 1997, published 2001).
